Experimental data: US20090226408A1, “ANTI-FATIGUE COMPOSITION” (KANEKA CORPORATION, priority 2005, published 2009)

System: Sprague-Dawley male rats
Assay: Treadmill test using young rat (maximum running time)
Format: in vivo
Settings: reduced coenzyme Q10 100 mg/kg, lipoic acid 30 mg/kg; for extension of the maximum running time (after the sample administration relative to before the administration), Average: Sprague-Dawley male rats 7 to 10 week old, oral in 0.5% CMC-Na, before vs three hours after administration; for extension of the maximum running time, significance: single agents: before vs after administration, combination: compared to control group, oral, three hours after administration
Experimental: Using Sprague-Dawley male rats (7 to 10 week old, n=20), anti-fatigue effects brought about by reduced coenzyme Q10 alone (about 2% of oxidized coenzyme Q10 included), lipoic acid alone, and combination use of reduced coenzyme Q10 and lipoic acid were evaluated with a treadmill. In the test, rats were run at a speed of 10 m/min using a treadmill apparatus (model NK-73-4 made by Natume Seisakusho Co., Ltd.), and the speed was increased stepwise, by 5 m/min every 3 min, and the time when the rats became unable to run (maximum running time) was measured.
As substances to be tested, 0.5% sodium carboxymethylcellulose (CMC-Na) aqueous solutions of reduced coenzyme Q10 (about 2% oxidized coenzyme Q10 included) or lipoic acid (α-lipoic acid (manufactured by Tokyo Chemical Industry Co., Ltd.)) were each prepared and the solutions were orally administered to rats at a dose of 100 mg/kg for reduced coenzyme Q10 or at a dose of 30 mg/kg for lipoic acid. Rats were divided into four groups of a solvent administered group, reduced coenzyme Q10 only administered group, lipoic acid only administered group, and a reduced coenzyme Q10 and lipoic acid combined group (reduced coenzyme Q10 and lipoic acid were administered almost simultaneously). The maximum running time was measured before and three hours after the administration and an extension of the maximum running time (after the sample administration relative to before the administration) was calculated. A 0.5% CMC-Na aqueous solution was administered to the control group.

Compound	extension of the maximum running time (after the sample administration relative to before the administration), Average	extension of the maximum running time, significance
O=C(O)CCCCC1CCSS1 (stereo not shown) [Lipoic acid, 1,2-dithioran-3-pentanoic acid]	7.3 s	no significant extension
COc1c(O)c(C)c(C/C=C(\C)CC/C=C(\C)CC/C=C(\C)CC/C=C(\C)CC/C=C(\C)CC/C=C(\C)CC/C=C(\C)CC/C=C(\C)CC/C=C(\C)CCC=C(C)C)c(O)c1OC [Reduced coenzyme Q10, reduced coenzyme Q10]	17.5 s	no significant extension
